Experiment [1] has as its system 293 human embryonic kidney cells. The experiment can be described thus: Suspension culture of 293 cells: cell density and viability. The class given is cell-based. As to conditions: lower-protein media, transferrin replaced by iron chelate; FIG. 2. The protocol: Adenovirus type 5-transformed 293 human embryonic kidney epithelial cells were obtained from ATCC(CRL 1573), and were cultured as described in Example 4 by incubation at 37° C. in a humidified atmosphere consisting of 8% CO2/92% air.
Cultures of 293 cells in serum-supplemented media were weaned from serum by passage 2-3 times in OptiMEM medium (Life Technologies, Inc.; Rockville, Md.) supplemented with 2% normal horse serum in 165 cm^2 culture flasks. After the second or third passage, when cells reached 50-75% confluence, they were dislodged from the growth surfaces by gently rapping the flasks several times; trypsin or other proteolytic agents were not used, since such agents often cause irreversible damage to cells cultivated in low-serum or serum-free media. Cells were resuspended in the present culture media and triturated until aggregates dispersed into a single cell suspension, and cell concentration and viability was determined by trypan blue exclusion counting on a hemacytometer according to routine procedures.
Cells were then seeded into the present culture medium in Erlenmeyer flasks at a density of about 2.5−3.0×10^5 cells/ml. […] Cell densities and viabilities were determined at least every other day, and cells were subcultured when the density approached about 7.5−10.0×10^5 cells/ml by diluting cultures with fresh culture medium to a density of about 2.5−3.0×10^5 cells/ml. […]

Experiment [2] deals with rβ-gal CHO cells. The experiment can be described thus: Growth (cell density) of rβ-gal CHO cells in suspension culture. The format is cell-based, Chinese hamster. As to conditions: for cell growth and viability versus CD CHO control: Example 14, 25 μg/mL in CD CHO medium, FIG. 13. The protocol:
To establish a recombinant β-galactosidase (rβ-Gal) CHO cell line, CHO cells deficient in dihydrofolate reductase (DHFR^−) were obtained from ATCC(CRL-9096, Rockville, Md.) and transfected with two plasmids: pSV2dhfr (ATCC 37146), containing a gene for methotrexate (MTX) resistance, and pCMVβgal, which contains the lacZ cDNA. The transfection was conducted using LipofectAMINE™ Reagent, and selection was accomplished with 1.2 μM methotrexate (Sigma Chemical Co., St Louis, Mo.). Stock cultures were maintained in CHO-S-SFM II or CHO III Prototype supplemented with 0.3 μM MTX.
Unless indicated otherwise below, CHO cell culture conditions were as follows for the following Examples. 25-35 mL of CHO cells were cultured in 125 mL shake flasks in humidified air containing 5-10% carbon dioxide. The shake flasks were shaken on an orbital shaking platform at 125-135 rpm. Temperature was maintained at 37° C. Cells were subcultured every three to four days to a density of 2−3×10^5 cells/mL.

The test system of experiment [3] is rβ-gal CHO cells. Briefly: rβ-Gal assay (ONPG) in lysates of rβ-gal CHO cells. The format is cell-based, Chinese hamster. The note with it: for level of rβ-gal expression versus CD CHO control: Example 14, 25 μg/mL in CD CHO medium, FIG. 14. As for the experimental part: rβ-Galactosidase (rβ-gal or rβeta-Gal) was measured in cell lysates using a modification of the method described by Hall et al., J. Mol. Appl. Gen. 2:101-109 (1983) and Miller, Experiments in Molecular Genetics, Cold Spring Harbor Laboratory (1972). Briefly, a 2.0 ml sample of cell suspension was collected from each sample and subjected to two freeze-thaw cycles, centrifuged at 100× g for 4 minutes, and the supernatant was saved for rβ-Galactosidase quantitation. 100 μl of each supernatant sample was added to 1.0 ml Z buffer (0.06 M Na2HPO4, 0.04M NaH2PO4, 0.01M KCl, 0.01M MgSO4-7H2O, 0.05M β-mercaptoethanol, pH 7.0), followed by 200 μl of o-nitrophenyl-p-D-galactoside (ONPG, 4.0 mg/ml in dH20) and incubated at 37° C. for 120 minutes. The reaction was halted by addition of 500 μl stop buffer (1M Na2CO3) and absorbance at 420 nm was read against a blank of the appropriate medium. Activity was calculated using the following formulae:
[formula] Units rβ-galactosidase/# of cells=Activity/cell 2.

For FeCl3-sodium citrate, the “support of 293 cell growth compared with complete media” value in experiment [1] was “performed equivalently to complete media”. For “dextran sulfate [dextran sulfate (m.w. 500,000)]”, the “cell growth and viability versus CD CHO control” value in the experiment with rβ-gal CHO cells [2] is “increased cell growth and viability at days 5 and 7, but not at day 9”. Also, the “level of rβ-gal expression versus CD CHO control” value in the experiment with rβ-gal CHO cells [3] was “did not display enhanced expression”. In the case of “dextran sulfate [dextran sulfate (m.w. 5,000)]”, the “cell growth and viability versus CD CHO control” value with rβ-gal CHO cells [2] is “increased cell growth and viability at days 5, 7, and 9”. Moreover, the “level of rβ-gal expression versus CD CHO control” value with rβ-gal CHO cells [3] is “an increase in the level of rβ-gal expression at days 5, 7, and 9”. In the case of `CN(Cc1cnc2nc(N)nc(N)c2n1)c1ccc(C(=O)N[C@@H](CCC(=O)O)C(=O)O)cc1` [MTX, methotrexate, reference compound], the “relation of concentration to cell density” value in the experiment with rβ-gal CHO cells [2] (Example 9, CD CHO medium with increasing concentrations, FIG. 7A) is listed as “inversely proportional”. Further, the “relation of concentration to rβ-galactosidase specific activity” value in the experiment with rβ-gal CHO cells [3] (Example 9, CD CHO medium with increasing concentrations, FIG. 7B) is “proportional”. In the case of FeSO4-EDTA, the “support of 293 cell growth compared with complete media” value in experiment [1] is given as “performed equivalently to complete media”.

(Values after patent US8198084B2, “Serum-free mammalian cell culture medium, and uses thereof” (Life Technologies Corporation, priority 1996, dated 2012).)
